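Following 48 hours of exposure in 96-well plates, responses at five concentrations were used to interpolate endpoints linearly. Here, GI50 denotes the concentration required for 50% inhibition of growth. TGI: total growth inhibition.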
Assays:
Test in all cases: NCI anticancer screen, dose series, 48 h
[1] = system: 786-0 renal
[2] = system: UACC-257 melanoma
[3] = system: NCI-H226 lung
[4] = system: MALME-3M melanoma
[5] = system: KM12 colon
[6] = system: NCI-H522 lung
[7] = system: SNB-19 CNS
[8] = system: RPMI-8226 leukemia
[9] = system: T-47D breast
[10] = system: SR leukemia
[11] = system: SF-268 CNS
[12] = system: OVCAR-3 ovarian
[13] = system: NCI-H460 lung
[14] = system: TK-10 renal
[15] = system: HOP-92 NSCLC
[16] = system: OVCAR-8 ovarian
[17] = system: COLO 205 colon
[18] = system: CCRF-CEM leukemia
[19] = system: HS 578T breast
[20] = system: A498 renal
[21] = system: SK-OV-3 ovarian
[22] = system: HCT-116 colon
[23] = system: SW-620 colon
[24] = system: OVCAR-5 ovarian
[25] = system: BT-549 breast
[26] = system: NCI-H23 lung
[27] = system: ACHN renal
[28] = system: HT29 colon
[29] = system: LOX IMVI melanoma
[30] = system: SNB-75 CNS
[31] = system: U251 CNS
[32] = system: K-562 leukemia
[33] = system: M14 melanoma
[34] = system: MDA-MB-435
[35] = system: HOP-62 NSCLC
[36] = system: HCC-2998 colon
[37] = system: SN12C renal
[38] = system: DU-145 prostate
[39] = system: UO-31 renal
[40] = system: PC-3 prostate
[41] = system: IGROV1 ovarian
[42] = system: CAKI-1 renal
[43] = system: EKVX NSCLC
[44] = system: SF-295 CNS
[45] = system: RXF 393 renal
[46] = system: UACC-62 melanoma
[47] = system: SF-539 CNS
[48] = system: SK-MEL-5 melanoma
[49] = system: MOLT-4 leukemia
[50] = system: SK-MEL-2 melanoma
[51] = system: OVCAR-4 ovarian
[52] = system: MCF7 breast
[53] = system: MDA-MB-231 breast
[54] = system: A549 NSCLC
[55] = system: HCT-15 colon
[56] = system: NCI/ADR-RES ovarian
[57] = system: SK-MEL-28 melanoma

With `C[C@]12CCC3[C@@H](C[C@@H]4SC(Nc5ccccc5)=N[C@@]45CC(=O)CC[C@]35C)[C@@H]1CCC2=O` (stereo partly drawn) the GI50 [1] was 3.02 µM, the TGI [1] was 13.1 µM and the GI50 [2] was 23.8 µM. For the same compound, the TGI [2] was 94.5 µM, the GI50 [3] was 7.36 µM and the TGI [3] was 45 µM. For the same compound, the GI50 [4] was 21.2 µM, the TGI [4] was over 100 µM and the GI50 [5] was 8.27 µM. For the same compound, the TGI [5] was 29.3 µM, the GI50 [6] was 6.6 µM and the TGI [6] was 23.6 µM. The GI50 [7] was 12.9 µM, the TGI [7] was over 100 µM and the GI50 [8] was 2.73 µM. For the same compound, the TGI [8] was 7.44 µM, the GI50 [9] was 3.5 µM and the TGI [9] was over 100 µM. For the same compound, the GI50 [10] was 2.58 µM, the TGI [10] was over 100 µM and the GI50 [11] was 5.95 µM. The TGI [11] was 70 µM, the GI50 [12] was 4.41 µM and the TGI [12] was 50.8 µM. The GI50 [13] was 4.65 µM, the TGI [13] was 27.9 µM and the GI50 [14] was 7.46 µM. It also gave a TGI [14] of 54.8 µM, a GI50 [15] of 18.7 µM and a TGI [15] of 67.9 µM. The GI50 [16] was 7.61 µM, the TGI [16] was over 100 µM and the GI50 [17] was 12.3 µM. It also gave a TGI [17] of 37.4 µM, a GI50 [18] of 2.84 µM and a TGI [18] of over 100 µM. The GI50 [19] was 12 µM, the TGI [19] was over 100 µM and the GI50 [20] was 28.8 µM. For the same compound, the TGI [20] was over 100 µM, the GI50 [21] was 34 µM and the TGI [21] was over 100 µM. The GI50 [22] was 1.91 µM, the TGI [22] was 4.16 µM and the GI50 [23] was 3.38 µM. The TGI [23] was 15.6 µM, the GI50 [24] was 24.5 µM and the TGI [24] was over 100 µM. The GI50 [25] was 4.58 µM, the TGI [25] was 38.9 µM and the GI50 [26] was 18.1 µM. It also gave a TGI [26] of over 100 µM, a GI50 [27] of 7.81 µM and a TGI [27] of 29.5 µM. It also gave a GI50 [28] of 3.9 µM, a TGI [28] of 17.6 µM and a GI50 [29] of 3.22 µM. It also gave a TGI [29] of 10.8 µM, a GI50 [30] of 5.4 µM and a TGI [30] of 72.5 µM. It also gave a GI50 [31] of 4.41 µM, a TGI [31] of 19.3 µM and a GI50 [32] of 2.79 µM. The TGI [32] was over 100 µM, the GI50 [33] was 7.88 µM and the TGI [33] was 50.9 µM. For the same compound, the GI50 [34] was 3.48 µM, the TGI [34] was over 100 µM and the GI50 [35] was 22.4 µM. It also gave a TGI [35] of over 100 µM, a GI50 [36] of 18.2 µM and a TGI [36] of 44.8 µM. The GI50 [37] was 3.81 µM, the TGI [37] was 25.3 µM and the GI50 [38] was 4.34 µM. For the same compound, the TGI [38] was 40.9 µM, the GI50 [39] was 5.26 µM and the TGI [39] was 19.4 µM. It also gave a GI50 [40] of 5.52 µM, a TGI [40] of 63.7 µM and a GI50 [41] of 8.21 µM. It also gave a TGI [41] of over 100 µM, a GI50 [42] of 13 µM and a TGI [42] of 30.2 µM. It also gave a GI50 [43] of 38.8 µM, a TGI [43] of over 100 µM and a GI50 [44] of 8.98 µM. The TGI [44] was over 100 µM, the GI50 [45] was 3.18 µM and the TGI [45] was 14.2 µM. It also gave a GI50 [46] of 9.54 µM, a TGI [46] of 29.6 µM and a GI50 [47] of 3.04 µM. For the same compound, the TGI [47] was 13.3 µM, the GI50 [48] was 10.2 µM and the TGI [48] was 26 µM. For the same compound, the GI50 [49] was 2.84 µM, the TGI [49] was over 100 µM and the GI50 [50] was 17.1 µM. The TGI [50] was 60.8 µM, the GI50 [51] was 18.9 µM and the TGI [51] was over 100 µM. The GI50 [52] was 3.58 µM, the TGI [52] was 32.8 µM and the GI50 [53] was 13.4 µM. For the same compound, the TGI [53] was over 100 µM, the GI50 [54] was 26.4 µM and the TGI [54] was over 100 µM. For the same compound, the GI50 [55] was 2.53 µM, the TGI [55] was 9.71 µM and the GI50 [56] was 6.34 µM. For the same compound, the TGI [56] was over 100 µM, the GI50 [57] was 20.5 µM and the TGI [57] was over 100 µM.
With `Nc1ccc2c(SCCSc3c4ccccc4nc4cc(N)ccc34)c3ccccc3nc2c1` the TGI [1] was over 100 µM, the TGI [2] was over 100 µM and the TGI [3] was over 100 µM. It also gave a TGI [4] of over 100 µM, a TGI [5] of over 100 µM and a TGI [6] of over 100 µM. The TGI [7] was over 100 µM, the TGI [8] was over 100 µM and the TGI [9] was over 100 µM. For the same compound, the TGI [10] was over 100 µM, the TGI [11] was over 100 µM and the TGI [12] was over 100 µM. It also gave a TGI [13] of over 100 µM, a TGI [14] of over 100 µM and a TGI [15] of over 100 µM. It also gave a TGI [16] of over 100 µM, a TGI [17] of over 100 µM and a TGI [18] of over 100 µM. The TGI [19] was over 100 µM, the TGI [21] was over 100 µM and the TGI [22] was over 100 µM. The TGI [23] was over 100 µM, the TGI [24] was over 100 µM and the TGI [25] was over 100 µM. For the same compound, the TGI [26] was over 100 µM, the TGI [27] was over 100 µM and the TGI [28] was over 100 µM. It also gave a TGI [29] of over 100 µM, a TGI [30] of over 100 µM and a TGI [31] of over 100 µM. It also gave a TGI [32] of over 100 µM, a TGI [33] of over 100 µM and a TGI [34] of over 100 µM. It also gave a TGI [35] of over 100 µM, a TGI [37] of over 100 µM and a TGI [38] of over 100 µM. For the same compound, the TGI [39] was over 100 µM, the TGI [40] was over 100 µM and the TGI [41] was over 100 µM. It also gave a TGI [42] of over 100 µM, a TGI [43] of over 100 µM and a TGI [44] of over 100 µM. The TGI [46] was over 100 µM, the TGI [47] was over 100 µM and the TGI [48] was over 100 µM. It also gave a TGI [49] of 39.3 µM, a TGI [50] of over 100 µM and a TGI [51] of over 100 µM. It also gave a TGI [52] of over 100 µM, a TGI [53] of over 100 µM and a TGI [54] of over 100 µM. For the same compound, the TGI [55] was over 100 µM, the TGI [56] was over 100 µM and the TGI [57] was over 100 µM.

Source: PubChem BioAssay (NCI)
